Results from article PMC8438664 (ACS Infectious Diseases, 2021).

How the values were obtained:
[1] = system: conditionally immortalized proximal tubule epithelial cells (ciPTECs) overexpressing OAT-1; experiment: ciPTEC cell viability assay; format: cell-based, human; conditions: 24 h, relative mitochondrial activity (PrestoBlue)
[2] = lipid II of VanA or VanB positive strains; cited from earlier work

CN[C@H](CC(C)C)C(=O)N[C@H]1C(=O)N[C@@H](CC(N)=O)C(=O)N[C@H]2C(=O)N[C@H]3C(=O)N[C@H](C(=O)N[C@H](C(=O)O)c4cc(O)cc(O)c4-c4cc3ccc4O)[C@H](O)c3ccc(c(Cl)c3)Oc3cc2cc(c3O[C@@H]2O[C@H](CO)[C@@H](O)[C@H](O)[C@H]2O[C@H]2C[C@](C)(N)[C@H](O)[C@H](C)O2)Oc2ccc(cc2Cl)[C@H]1O [Vancomycin]
viability at a concentration of 1 mM [1]: > 50%
fold reduction in binding affinity on mutation of D-Ala-D-Ala to D-Ala-D-Lac [2]: > 1000 fold
